Patent US20030053995A1 (priority 2001, published 2003)
Like-named read-outs stand apart in the source and are kept apart here. Starred links: 1 amine or outer side, 2 acyl side, 3 side chain; linkers in the order of their positions; H or OH if unused. Positions of bridges follow the written chain, without caps; N, C: chain ends. Non-standard residues stand in square brackets, D forms with d. Residues, ends and D or L forms follow the SMILES beside them. Chains are numbered I, II in the order given. Actinocin(9to1) = Cc1c2oc3c(C)ccc(C(=O)[*:1])c3nc-2c(C(=O)[*:2])c(N)c1=O; NMeV = CN[C@H](C(=O)O)C(C)C; Sar = CNCC(=O)O

How the values were obtained:
[1] = cited from earlier work; for dose excreted/detected intact in the urine: in vivo; for half-life of disappearance from plasma: after intravenous injection, after distribution; for binding to plasma proteins: result in words
[2] = cited from earlier work
[3] = tested on: Cyclin D1 promoter (Cyclin D1-luc) in MDA-MB-468 cells; assay: EGF activation of Cyclin D1 promoter luciferase reporter; type: cell-based; details: EGF 100 ng/ml
From the text: In FIG. 7A, MDA-MB-468 cells were transfected with a luciferase vector containing the cyclin D1 promoter with two intact ATRS or the same promoter with the ATRS mutated. […] After precipitation with the EGFR antibodies (1 Santa Cruz, 2 NeoMarkers) or normal rabbit IgG, cyclin D1 promoter region was amplified by PCR. Input nuclear DNA (In) or water (dw) were used as PCR controls.
Targets for nuclear EGFR were identified. Since nuclear EGFR correlated with highly proliferative activity of cells, it was suspected that its target genes were likely involved in cell proliferation. One of the candidates, Cyclin D1, is a cell-cycle regulator essential for G1 phase progression. […] Two ATRS sequences are located in the proximal region of Cyclin D1 promoter between nucleotide −74 to −70 (TTTAT; SEQ ID NO:3) and −31 to −27 (TTTGT; SEQ ID NO:4), respectively. To test whether these two ATRS in Cyclin D1 promoter were responsive to EGFR activity, the reporter gene containing 163 bp of the Cyclin Dl promoter (Cyclin D1-luc) was tested. Many known transcription factor-binding sites had been eliminated from this construct but it still contained two ATRS described above.

[4] = tested on: ATRS (AT-rich consensus sequence) luciferase reporter with TK minimal promoter; assay: EGF activation of ATRS luciferase reporter; type: cell-based
From the text: (FIG. 6A) A431, (FIG. 6B) MDA-MB-468, (FIG. 6C) HBL 100, and (FIG. 6D) CHO cells.
Next, four repeats of either the ATRS sites or the mutated sites were constructed in a luciferase reporter construct containing the mouse thymidine kinase gene (TK) minimal promoter. […] EGFR-dependent activation, however, could be restored in these two cell lines upon the cotransfection of the EGFR expression vector. Thus, the ATRS, which can bind to nuclear EGFR complex, responds to EGFR-dependent activation, whereas the mutant ATRS, which fails to bind to nuclear EGFR, loses it ability to respond to the EGFR-dependent activation.
Plasmids and transfection. The cytoplasmic domain (645-1186), tyrosine kinase domain (645-1011), and C-terminal proline rich region (1011-1086) of human EGFR were amplified by PCR and subcloned in frame into pSG424 to generate for each domain a fusion protein containing GAL4 DNA binding proteins. The fusion protein constructs were then transfected into a variety of cell lines along with GAL4CAT or GAL4Luc reporter plasmids via liposomal DC-Cole provide by Dr. Leaf Huang at University of Pittsburgh.

[5] = EGFR-overexpressing cell lines A431 and MDA-MB-468, EGF 100 ng/ml

In the case of `Cc1c2oc3c(C)ccc(C(=O)N[C@@H]4C(=O)N[C@H](C(C)C)C(=O)N5CCC[C@H]5C(=O)N(C)CC(=O)N(C)[C@@H](C(C)C)C(=O)O[C@@H]4C)c3nc-2c(C(=O)N[C@@H]2C(=O)N[C@H](C(C)C)C(=O)N3CCC[C@H]3C(=O)N(C)CC(=O)N(C)[C@@H](C(C)C)C(=O)O[C@@H]2C)c(N)c1=O` [Actinomycin D] (I: T[dV]P[Sar][NMeV] / II: T[dV]P[Sar][NMeV]; ester I:1-I:C, II:1-II:C; linker I:N-II:N via Actinocin(9to1)), the “dose excreted/detected intact in the urine” value [1] is given as 10%.
For `O=NN(CCCl)C(=O)NCCCl` [Carmustine, 1,3bis (2-chloroethyl)-1-nitrosourea], the “solubility in organic solvents / alcohol and lipids” value ([2]; result in words) is listed as “highly soluble in alcohol and lipids”.
For `O=NN(CCCl)C(=O)NC1CCCCC1` [Lomustine, 1-(2-chloro-ethyl)-3-cyclohexyl-1 nitrosourea], the “tissue levels relative to plasma levels” value ([1]; 15 minutes after intravenous administration) is given as “comparable to plasma levels”, the solubility ([2]; 10% ethanol) is given as 0.05 mg per mL and the solubility ([2]; absolute alcohol) is given as 70 mg per mL. For the same compound, the solubility ([2]; water) was < 0.05 mg per mL.
In the case of `CC[C@]1(O)C[C@@H]2CN(CCc3c([nH]c4ccccc34)[C@@](C(=O)OC)(c3cc4c(cc3OC)N(C)[C@H]3[C@@](O)(C(=O)OC)[C@H](OC(C)=O)[C@]5(CC)C=CCN6CC[C@]43[C@@H]65)C2)C1` [Vinblastine], the “half-life of disappearance from plasma” value ([1]; first of two half-lives) is listed as “approximately 1 hours”, the “half-life of disappearance from plasma” value ([1]; second of two half-lives) is listed as ~20 h and the “dose excreted/detected intact in the urine” value [1] is listed as “Approximately 15%”. For the same compound, the “binding to plasma proteins” value [1] was “bind to plasma proteins”.
For `CC[C@]1(O)C[C@H]2CN(CCc3c([nH]c4ccccc34)[C@@](C(=O)OC)(c3cc4c(cc3OC)N(C=O)[C@H]3[C@@](O)(C(=O)OC)[C@H](OC(C)=O)[C@]5(CC)C=CCN6CC[C@]43[C@@H]65)C2)C1` [Vincristine], the “binding to plasma proteins” value [1] is given as “bind to plasma proteins”.
In the case of “EGF: epidermal growth factor, ligand for EGFR”, the “activation of Cyclin D1-luc(m) reporter with both ATRS mutated” value [3] is reported as “abolished”, the “activation of wild-type Cyclin D1-luc reporter” value [3] is reported as “up to four fold” and the “activation of mutant ATRS reporter construct” value [4, 5] is reported as “only weakly activate”. The “activation of wild-type ATRS reporter construct” value [4, 5] was “strongly activate” and the “activation of wild type or mutant ATRS reporter” value ([4]; cells with low (HBL100) or no EGFR (CHO), EGF 100 ng/ml) was “neither wild type nor the mutant reporter could be activated”.
